Consider 14 compounds from ChEMBL document CHEMBL1154437, “Pyrimido[1,2-a]quinoxaline 6-oxide and phenazine 5,10-dioxide derivatives and related compounds as growth inhibitors of Trypanosoma cruzi” (Eur J Med Chem, 2008).

Common to all, as to type: functional
Common to all, as to details: read-out: GI

Assay [1] concerns Trypanosoma cruzi. Briefly: Antitrypanosomal activity against Trypanosoma cruzi Tulahuen 2 epimastigotes at 25 uM.
The test system of assay [2] is Trypanosoma cruzi. Briefly: Antitrypanosomal activity against Trypanosoma cruzi CL Brener epimastigotes at 25 uM.
The subject of assay [3] is Trypanosoma cruzi. In words: Antitrypanosomal activity against Trypanosoma cruzi Y epimastigotes at 25 uM.

Molecules are shown by their SMILES.

In the case of `COc1ccc(C2=[N+]([O-])c3ccccc3N3CCC[N+](C)=C23)cc1`, the inhibition of growth at 25 µM in assay [1] amounted to 9%. Still for that read-out and setting: for `c1ccc(C2=Nc3ccccc3N3CCCN=C23)cc1` the value was 29%; for `CC1=[N+]([O-])c2ccccc2N2CCCN=C12`, 22%. As for `C[N+]1=C2C(c3ccccc3)=[N+]([O-])c3ccccc3N2CCC1`, the inhibition of growth at 25 µM in assay [1] turned out to be 20%.

As for `C[N+]1=C2C(c3ccc([N+](=O)[O-])cc3)=[N+]([O-])c3ccccc3N2CCC1`, the inhibition of growth at 25 µM in assay [1] came to 20%. With `[O-][N+]1=C(c2ccccc2)C2=NCCCN2c2ccccc21`, in assay [1], the inhibition of growth at 25 µM was 36%.

Take `[O-][N+]1=C(c2ccccc2Cl)C2=NCCCN2c2ccccc21`: in assay [1], the inhibition of growth at 25 µM worked out at 14%. In the case of `COc1ccc(C2=[N+]([O-])c3ccccc3N3CC(C)(C)CN=C23)cc1`, the inhibition of growth at 25 µM in assay [1] is 13%.

For `[O-][n+]1c2ccccc2[n+]([O-])c2cc(O)ccc21`, the inhibition of growth at 25 µM in assay [2] was 14%; in assay [1] it was 0%; in assay [3] it was 0%. Turning to `O=[N+]([O-])c1ccc(C2=[N+]([O-])c3ccccc3N3CCCN=C23)cc1`, the inhibition of growth at 25 µM in assay [1] came to 9%.

Regarding `[O-][N+]1=C(c2ccc(Cl)cc2)C2=NCCCN2c2ccccc21`, the inhibition of growth at 25 µM in assay [1] was 14%. As for `O=[N+]([O-])c1ccccc1C1=[N+]([O-])c2ccccc2N2CCCN=C12`, the inhibition of growth at 25 µM in assay [1] turned out to be 12%. `[O-][N+]1=C(Cc2ccccc2)C2=NCCCN2c2ccccc21`: the inhibition of growth at 25 µM in assay [1] was determined as 13%. On the same count and under the same terms, the value for `COc1ccc(C2=[N+]([O-])c3ccccc3N3CCCN=C23)cc1` was 36%.
